Reference: patent US12385042B2, “Cell-penetrating peptides” (VECTIOPEP OÜ, priority 2019, dated 2025)
“Also recorded” adds a separate entry of the source. Read-outs that look alike come from different tables or passages of the source. Where a SMILES comes first, the peptide text is derived from it. Bridges are numbered along the chain shown (N, C = ends). Roman numbers before positions name the chains, in order. [ ]: non-standard residue; d: D form. The star is where a group is joined. Arachidoyl = CCCCCCCCCCCCCCCCCCCC(=O)*; Stearoyl = CCCCCCCCCCCCCCCCCC(=O)*; Orn = NCCC[C@H](N)C(=O)O

Legend:
[1] = tested on: U87 MG-luc2 human glioma cells, stably expressing luc2; experiment: Luciferase gene downregulation by CPP/siRNA (siLuc2) complexes; format: cell-based; conditions: for luciferase downregulation efficiency (in words) / Red (%) (reduction, based on remaining luminescence on U87 cells post-treatment): CPP/siRNA complexes; for luciferase downregulation efficiency (in words): comparison between CPPs; for Red (%) (reduction, based on remaining luminescence on U87 cells post-treatment): siRNA against luciferase; for IC50: read-out: IC50 (siRNA concentration), luciferase downregulation; for remaining reporter activity: molar ratio 30 (MR30, peptide to siRNA), untreated cells 100%
How it was run: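 U87-luc2 cells in serum-containing medium got peptide/siLuc2 complexes formed in water (pH 5.3-6.3, MR 40:1, 1 h RT) at 25 nM siRNA for 4 h at 37 °C, then 20 h more. Lysate luminescence normalized to protein; in other runs, MR30/10 nM in HEPES-FBS, or varied MR at 50 nM, vs untreated (100%).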

[2] = tested on: CHO stably expressing green fluorescent protein (GFP); experiment: GFP gene downregulation by CPP/siGFP complexes (lysate fluorescence, FACS, confocal); format: cell-based; conditions: for GFP signal in confocal images: live cells treated with CPP/siGFP complexes
How it was run: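 CHO-GFP cells (5×10^5/well) in serum-containing medium exposed 4 h at 37 °C to CPP/siGFP complexes (peptide:siRNA molar ratio 40:1, siRNA 100 nM final), then 44 h further culture. GFP read as protein-normalized lysate fluorescence, by FACS (fraction below 0.1% untreated-cell signal), or by confocal imaging after 48 h.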

murine red blood cells = experiment: Membrane activity assay on murine red blood cells: hemolysis; format: cell-based, mouse; conditions: for HC50 CPP/siRNA complex (peptide concentration): CPP/siRNA complexes at MR30; for HC50 Free peptide: pH 7.5
Protocol: For evaluation of membrane activity of peptides, hemolysis assay was used. For this whole blood was collected from mouse (adult, BALB/c) saphenous vein into a heparinized collection tube. Blood was centrifuged (2300× g, 15 min) to separate cells (red blood cells-RBC) from the plasma. RBCs were washed according to following procedures.
RBCs were washed with 10 ml 0.9% NaCl saline and centrifuged (600× g, 15 min). Supernatant was discarded after each centrifugation. This was repeated at least 3 times. RBCs were re-suspended in 5 ml saline and distributed equally to tubes and centrifuged (600× g, 15 min). The cells were washed and re-suspended in 2× PBS with the required pH (pH 5.5-7.5). The hemoglobin content in stocks was measured after lysis of cells with equal volume of 0.1% Triton X100 supplemented with 5% glucose. The cell suspension was diluted accordingly for each pH value to obtain similar concentration range of hemoglobin in stocks. To each 100 ul of peptide solution 100 ul of 10% glucose was added, mixed, and equal volume (200 ul) of RBC in 2× PBS were added and gently mixed. Peptide solution with RBCs was incubated at 37° C. for 1 h with gentle mixing (max 300 rpm) after which samples were centrifuged to pellet intact cells from the solution. Hemoglobin from lysed cells was determined from each sample from the supernatant on transparent 96-well plates by measuring the absorbance at 540 nm.
Controls were incubated in similar manner as samples. As a non-hemolysis control mQ supplemented with glucose (0%) was used and for hemolytic control 0.1% TritonX-100 with glucose (100%) was used (cells are suspended in 2× PBS before addition). Final percent was calculated as follows: […]
For hemolytic concentration determination 2× PBS at pH 7.5 was used for incubation and 1× PBS at pH 7.5 was used for washing. Everything else is as described in previous paragraph.

organs of BALB/c mice = experiment: Gene delivery in vivo (CPP/pDNA, i.v., organ luminescence); set-up: species or system mouse; conditions: for reporter gene expression in organs after i.v. CPP/pDNA (in words): CR2 or CR4, 50 μg or 20 μg pDNA, 24 h
Protocol: For in vivo pDNA delivery studies BALB/c mice were used. Each animal received a single […] intravenous (i.v.) injection of the complexes at CR2 or CR4. Two doses of pDNA […] were used. After 24 hr, the mice were sacrificed using cervical dislocation, and whole organs were harvested and snap-frozen on dry ice. The organs were homogenized, and luminescence was measured.

[3] = complexes formed at MR30, average

SMILES	luciferase downregulation efficiency (in words) ([1]; listed as H6-C20)	Red (%) (reduction, based on remaining luminescence on U87 cells post-treatment) [1]	downregulation of luciferase activity ([1]; H6 series, effect of fatty acid length)	IC50 ([1]; complexes formed at MR30, average, listed as H6-C20) [nM]	IC50 [1, 3] [nM]	IC50 ([1]; complexes formed at MR30 and MR40, similar average value) [nM]	remaining reporter activity [1] [%]	GFP signal in confocal images [2]	hemolytic concentration, fold higher than NF71 (murine red blood cells)	HC50 CPP/siRNA complex (peptide concentration) (murine red blood cells) [µM]	HC50 times higher than that of NF55 (murine red blood cells; free peptide) [times]	HC50 Free peptide (murine red blood cells; free peptide) [µM]	pH dependent hemolytic activity (in words) (murine red blood cells; peptide 0.75 uM, buffer pH 5.5-7.5)	reporter gene expression in organs after i.v. CPP/pDNA (in words) (organs of BALB/c mice)	luciferase downregulation efficiency (in words) [1]	IC50 ([1]; complexes formed at MR20) [nM]	downregulation of GFP (average, cell lysate fluorescence) ([2]; siGFP 100 nM)	hemolytic activity of free peptide (in words) (murine red blood cells; free peptide, up to 10 uM)	transfection level in liver at CR2 compared to CR4 (organs of BALB/c mice; liver) [fold]	transfection level in lungs at CR2 compared to CR4 (organs of BALB/c mice; lungs) [fold]
CCCCCCCCCCCCCCCCCCCC(=O)N[C@@H](Cc1c[nH]cn1)C(=O)N[C@@H](Cc1c[nH]cn1)C(=O)N[C@@H](Cc1c[nH]cn1)C(=O)N[C@@H](Cc1c[nH]cn1)C(=O)N[C@@H](Cc1ccc(O)cc1)C(=O)N[C@@H](Cc1c[nH]cn1)C(=O)N[C@@H](Cc1c[nH]cn1)C(=O)NCC(=O)NCCC[C@H](N)C(=O)N[C@H](C(=O)N[C@@H](CC(C)C)C(=O)N[C@@H](CC(C)C)C(=O)N[C@@H](CCCCN)C(=O)N[C@@H](C)C(=O)N[C@@H](CC(C)C)C(=O)N[C@@H](CCCCN)C(=O)N[C@@H](C)C(=O)N[C@@H](CC(C)C)C(=O)N[C@@H](C)C(=O)N[C@@H](CCCCN)C(=O)N[C@@H](C)C(=O)N[C@H](C(=O)N[C@@H](CC(C)C)C(N)=O)[C@@H](C)CC)[C@@H](C)CC [NF70] (I: H-[Orn]ILLKALKALAKAIL-NH2 / II: Arachidoyl-HHHHYHHG; amide I:1-II:C)	equally strong downregulation of the luciferase gene; also recorded: at MR40 it was even more efficient than PF6 or H4-C18	92	up to 95%	14.7	14.8	14.7 to 14.8	15	detected GFP signal was the lowest	3.6	8.3	2.5	4.3	the increase was less substantial	very low transfection levels in vivo						
CCCCCCCCCCCCCCCCCC(=O)N[C@@H](Cc1c[nH]cn1)C(=O)N[C@@H](Cc1c[nH]cn1)C(=O)N[C@@H](Cc1ccc(O)cc1)C(=O)N[C@@H](Cc1c[nH]cn1)C(=O)N[C@@H](Cc1c[nH]cn1)C(=O)NCC(=O)NCCC[C@H](N)C(=O)N[C@H](C(=O)N[C@@H](CC(C)C)C(=O)N[C@@H](CC(C)C)C(=O)N[C@@H](CCCCN)C(=O)N[C@@H](C)C(=O)N[C@@H](CC(C)C)C(=O)N[C@@H](CCCCN)C(=O)N[C@@H](C)C(=O)N[C@@H](CC(C)C)C(=O)N[C@@H](C)C(=O)N[C@@H](CCCCN)C(=O)N[C@@H](C)C(=O)N[C@H](C(=O)N[C@@H](CC(C)C)C(N)=O)[C@@H](C)CC)[C@@H](C)CC [NF71] (I: H-[Orn]ILLKALKALAKAIL-NH2 / II: Stearoyl-HHYHHG; amide I:1-II:C)		88			6.8		13	detected GFP signal was the lowest		2.5		1.2		high reporter gene expression in liver and lungs	most efficient peptides even at low MRs	11.1	lower than with H6^1-C20 or H8-C20	more hemolytic than its parent peptide NF55	7	3
